Reference: patent publication US6737383B1, “Herbicidal oxadiazolidines” (priority 1999, dated 2004)

Tests used:
bamyardgrass = test: Test B flood test barnyardgrass; type: in vivo, Echinochloa crus-galli
How it was run: (§1)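 Plants were grown to the 2-leaf stage before treatment with test chemical, then held in a greenhouse for twelve to sixteen days. Injury was visually rated against untreated controls on a 0–10 scale, where 0 is no effect and 10 is complete control.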

cocklebur = test: Test B pre/postemergence cocklebur; type: in vivo, Xanthium strumarium
How it was run: (§2)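 Response is a visual 0-to-10 score relative to untreated plants, where 0 means no effect and 10 means complete control, taken twelve to sixteen days after application. Treatments went onto soil at planting and onto foliage of 1- to 4-leaf plants, using a surfactant-containing non-phytotoxic solvent.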

duck salad = test: Test B flood test duck salad; type: in vivo, Heteranthera limosa
How it was run: as §1

rape = test: Test B pre/postemergence rape; type: in vivo, Brassica napus
How it was run: as §2

corn = test: Test B pre/postemergence corn; type: in vivo, Zea mays
How it was run: as §2

surinam grass = test: Test B pre/postemergence surinam grass; type: in vivo, Brachiaria decumbens
How it was run: as §2

morningglory = test: Test B pre/postemergence morningglory; type: in vivo, Ipomoea hederacea
How it was run: as §2

velvetleaf = test: Test B pre/postemergence velvetleaf; type: in vivo, Abutilon theophrasti
How it was run: as §2

wild oat = test: Test B pre/postemergence wild oat; type: in vivo, Avena fatua
How it was run: as §2

crabgrass = test: Test B pre/postemergence crabgrass; type: in vivo, Digitaria sanguinalis
How it was run: as §2

smallflower flatsedge = test: Test B flood test smallflower flatsedge; type: in vivo, Cyperus difformis
How it was run: as §1

pigweed = test: Test B pre/postemergence pigweed; type: in vivo, Amaranthus retroflexus
How it was run: as §2

wheat = test: Test B pre/postemergence wheat; type: in vivo, Triticum aestivum
How it was run: as §2

rice = test: Test B flood test rice; type: in vivo, Oryza sativa
How it was run: as §1

sugar beet = test: Test B pre/postemergence sugar beet; type: in vivo, Beta vulgaris
How it was run: as §2

giant foxtail = test: Test B pre/postemergence giant foxtail; type: in vivo, Setaria faberii
How it was run: as §2

blackgrass = test: Test B pre/postemergence blackgrass; type: in vivo, Alopecurus myosuroides
How it was run: as §2

soybean = test: Test B pre/postemergence soybean; type: in vivo, Glycine max
How it was run: as §2

purple nutsedge = test: Test B pre/postemergence purple nutsedge; type: in vivo, Cyperus rotundus
How it was run: as §2

[1] = Rate 62 g/ha, flood test species, Pre-emergence, visual evaluation after twelve to sixteen days
[2] = Rate 125 g/ha, under heading Pre-emergence, flood test species, visual evaluation after twelve to sixteen days
[3] = Rate 250 g/ha, Pre-emergence (flood test species), scale 0 to 10, 0 is no effect, 10 is complete control
[4] = Rate 500 g/ha, Pre-emergence section of Table B, 0 to 10 scale (0 no effect, 10 complete control)
[5] = Postemergence, Rate 62 g/ha, scale 0 to 10, 0 is no effect, 10 is complete control
[6] = Postemergence, Rate 125 g/ha, scale of 0 to 10 where 0 is no effect and 10 is complete control
[7] = Postemergence, Rate 250 g/ha, scale of 0 to 10, 0 is no effect, 10 is complete control
[8] = Preemergence, Rate 62 g/ha, scale of 0 to 10 where 0 is no effect and 10 is complete control
[9] = Preemergence, Rate 125 g/ha, scale of 0 to 10 where 0 is no effect and 10 is complete control
[10] = Preemergence, Rate 250 g/ha, scale 0 to 10 (0 no effect, 10 complete control)
[11] = Preemergence, Rate 500 g/ha, scale of 0 to 10 where 0 is no effect and 10 is complete control
[12] = Rate 500 g/ha, Postemergence, scale 0 to 10, 0 is no effect, 10 is complete control

## C#CC(C)n1c(=O)on(C(=O)N(c2ccc(F)cc2F)C(C)C)c1=O (racemic) [Compound 657]
bamyardgrass; [1]
  Plant response rating, Barnyardgrass (0 to 10 scale, 0 is no effect, 10 is complete control): 0
bamyardgrass; [2]
  Barnyardgrass plant response rating (0 to 10 scale, 0 is no effect, 10 is complete control): 0
bamyardgrass; [3]
  Barnyardgrass plant response rating: 0
bamyardgrass; [4]
  Barnyardgrass plant response rating: 0
cocklebur; [5]
  Plant response rating, Cocklebur: 0
cocklebur; [6]
  Cocklebur plant response rating: 2
cocklebur; [7]
  Cocklebur plant response rating: 4
cocklebur; [8]
  Cocklebur plant response rating: 0
cocklebur; [9]
  Cocklebur plant response rating: 0
cocklebur; [10]
  Plant response rating, Cocklebur: 2
cocklebur; [11]
  Plant response rating, Cocklebur: 2
cocklebur; [12]
  Cocklebur plant response rating: 5
Duck salad; [1]
  Plant response rating, Ducksalad (0 to 10 scale, 0 is no effect, 10 is complete control): 0
Duck salad; [2]
  Ducksalad plant response rating (0 to 10 scale, 0 is no effect, 10 is complete control): 0
Duck salad; [3]
  Ducksalad plant response rating: 0
Duck salad; [4]
  Ducksalad plant response rating: 0
rape; [5]
  Plant response rating, Rape: 0
rape; [6]
  Rape plant response rating: 2
rape; [8]
  Rape plant response rating: 3
rape; [9]
  Rape plant response rating: 3
rape; [10]
  Plant response rating, Rape: 10
rape; [11]
  Plant response rating, Rape: 10
rape; [12]
  Rape plant response rating: 3
corn; [5]
  Plant response rating, Corn: 1
corn; [6]
  Corn plant response rating: 1
corn; [7]
  Corn plant response rating: 1
corn; [8]
  Corn plant response rating: 0
corn; [9]
  Corn plant response rating: 1
corn; [11]
  Plant response rating, Corn: 8
corn; [12]
  Corn plant response rating: 1
Surinam grass; [5]
  Plant response rating, B. signalgrass: 0
Surinam grass; [6]
  Plant response rating, B. signalgrass: 2
Surinam grass; [7]
  B. signalgrass plant response rating: 4
Surinam grass; [8]
  B. signalgrass plant response rating: 2
Surinam grass; [9]
  B. signalgrass plant response rating: 8
Surinam grass; [10]
  Plant response rating, B. signalgrass: 9
Surinam grass; [11]
  Plant response rating, B. signalgrass: 10
Surinam grass; [12]
  B. signalgrass plant response rating: 6
morningglory; [5]
  Plant response rating, Morningglory: 2
morningglory; [6]
  Morningglory plant response rating: 5
morningglory; [7]
  Morningglory plant response rating: 5
morningglory; [8]
  Morningglory plant response rating: 1
morningglory; [9]
  Morningglory plant response rating: 1
morningglory; [10]
  Plant response rating, Morningglory: 4
morningglory; [11]
  Plant response rating, Morningglory: 6
morningglory; [12]
  Morningglory plant response rating: 9
velvetleaf; [5]
  Plant response rating, Velvetleaf: 2
velvetleaf; [6]
  Velvetleaf plant response rating: 3
velvetleaf; [8]
  Velvetleaf plant response rating: 3
velvetleaf; [9]
  Velvetleaf plant response rating: 4
velvetleaf; [10]
  Plant response rating, Velvetleaf: 8
velvetleaf; [11]
  Plant response rating, Velvetleaf: 10
velvetleaf; [12]
  Velvetleaf plant response rating: 4
Wild oat; [5]
  Plant response rating, Wild oats: 1
Wild oat; [6]
  Wild oats plant response rating: 2
Wild oat; [8]
  Wild oats plant response rating: 3
Wild oat; [9]
  Wild oats plant response rating: 6
Wild oat; [10]
  Plant response rating, Wild oats: 8
Wild oat; [11]
  Plant response rating, Wild oats: 8
Wild oat; [12]
  Wild oats plant response rating: 2
crabgrass; [5]
  Plant response rating, Crabgrass: 3
crabgrass; [6]
  Crabgrass plant response rating: 8
crabgrass; [7]
  Crabgrass plant response rating: 9
crabgrass; [8]
  Crabgrass plant response rating: 3
crabgrass; [9]
  Crabgrass plant response rating: 10
crabgrass; [10]
  Plant response rating, Crabgrass: 9
crabgrass; [11]
  Plant response rating, Crabgrass: 9
crabgrass; [12]
  Crabgrass plant response rating: 9
Smallflower flatsedge; [1]
  Plant response rating, S. Flatsedge (0 to 10 scale, 0 is no effect, 10 is complete control): 0
Smallflower flatsedge; [2]
  S. Flatsedge plant response rating (0 to 10 scale, 0 is no effect, 10 is complete control): 0
Smallflower flatsedge; [3]
  S. Flatsedge plant response rating: 0
Smallflower flatsedge; [4]
  S. Flatsedge plant response rating: 0
pigweed; [5]
  Plant response rating, Redroot pigweed: 0
pigweed; [6]
  Redroot pigweed plant response rating: 2
pigweed; [8]
  Redroot pigweed plant response rating: 7
pigweed; [9]
  Redroot pigweed plant response rating: 10
pigweed; [10]
  Plant response rating, Redroot pigweed: 10
pigweed; [11]
  Plant response rating, Redroot pigweed: 10
pigweed; [12]
  Redroot pigweed plant response rating: 7
wheat; [5]
  Plant response rating, Wheat: 0
wheat; [6]
  Wheat plant response rating: 0
wheat; [8]
  Wheat plant response rating: 0
wheat; [9]
  Wheat plant response rating: 0
wheat; [10]
  Plant response rating, Wheat: 0
wheat; [11]
  Plant response rating, Wheat: 7
wheat; [12]
  Wheat plant response rating: 5
rice; [1]
  Plant response rating, Rice (0 to 10 scale, 0 is no effect, 10 is complete control): 0
rice; [2]
  Rice plant response rating (0 to 10 scale, 0 is no effect, 10 is complete control): 0
rice; [3]
  Rice plant response rating: 0
rice; [4]
  Rice plant response rating: 0
Sugar beet; [5]
  Plant response rating, Sugarbeets: 0
Sugar beet; [6]
  Sugarbeets plant response rating: 0
Sugar beet; [8]
  Sugarbeets plant response rating: 7
Sugar beet; [9]
  Sugarbeets plant response rating: 7
Sugar beet; [10]
  Plant response rating, Sugarbeets: 10
Sugar beet; [11]
  Plant response rating, Sugarbeets: 9
Sugar beet; [12]
  Sugarbeets plant response rating: 3
Giant foxtail; [5]
  Plant response rating, Giant foxtail: 5
Giant foxtail; [6]
  Giant foxtail plant response rating: 8
Giant foxtail; [7]
  Giant foxtail plant response rating: 7
Giant foxtail; [8]
  Giant foxtail plant response rating: 10
Giant foxtail; [9]
  Giant foxtail plant response rating: 10
Giant foxtail; [10]
  Plant response rating, Giant foxtail: 9
Giant foxtail; [11]
  Plant response rating, Giant foxtail: 9
Giant foxtail; [12]
  Giant foxtail plant response rating: 8
blackgrass; [5]
  Plant response rating, Blackgrass: 6
blackgrass; [6]
  Blackgrass plant response rating: 8
blackgrass; [7]
  Blackgrass plant response rating: 8
blackgrass; [8]
  Blackgrass plant response rating: 5
blackgrass; [9]
  Blackgrass plant response rating: 9
blackgrass; [10]
  Plant response rating, Blackgrass: 7
blackgrass; [11]
  Plant response rating, Blackgrass: 9
blackgrass; [12]
  Blackgrass plant response rating: 8
soybean; [5]
  Plant response rating, Soybean: 1
soybean; [6]
  Soybean plant response rating: 1
soybean; [8]
  Soybean plant response rating: 0
soybean; [9]
  Soybean plant response rating: 0
soybean; [11]
  Plant response rating, Soybean: 3
Purple nutsedge; [6]
  Nutsedge plant response rating: 3
Purple nutsedge; [8]
  Nutsedge plant response rating: 0
Purple nutsedge; [9]
  Nutsedge plant response rating: 0
Purple nutsedge; [10]
  Plant response rating, Nutsedge: 5
Purple nutsedge; [11]
  Plant response rating, Nutsedge: 6
